Assay results as given in ChEMBL document CHEMBL5465560, “Selectivity Literature for EUbOPEN Chemogenomic Library” (2024).

How the values were obtained:
[1] = biological target: T1, Serine/threonine-protein kinase haspin (Homo sapiens) (UniProt Q8TF76); assay: Selectivity interaction (KinomeScan (DiscoverX)) EUB0000695a GSG2; conditions: at 100 nM
T1 sequence (whole entry): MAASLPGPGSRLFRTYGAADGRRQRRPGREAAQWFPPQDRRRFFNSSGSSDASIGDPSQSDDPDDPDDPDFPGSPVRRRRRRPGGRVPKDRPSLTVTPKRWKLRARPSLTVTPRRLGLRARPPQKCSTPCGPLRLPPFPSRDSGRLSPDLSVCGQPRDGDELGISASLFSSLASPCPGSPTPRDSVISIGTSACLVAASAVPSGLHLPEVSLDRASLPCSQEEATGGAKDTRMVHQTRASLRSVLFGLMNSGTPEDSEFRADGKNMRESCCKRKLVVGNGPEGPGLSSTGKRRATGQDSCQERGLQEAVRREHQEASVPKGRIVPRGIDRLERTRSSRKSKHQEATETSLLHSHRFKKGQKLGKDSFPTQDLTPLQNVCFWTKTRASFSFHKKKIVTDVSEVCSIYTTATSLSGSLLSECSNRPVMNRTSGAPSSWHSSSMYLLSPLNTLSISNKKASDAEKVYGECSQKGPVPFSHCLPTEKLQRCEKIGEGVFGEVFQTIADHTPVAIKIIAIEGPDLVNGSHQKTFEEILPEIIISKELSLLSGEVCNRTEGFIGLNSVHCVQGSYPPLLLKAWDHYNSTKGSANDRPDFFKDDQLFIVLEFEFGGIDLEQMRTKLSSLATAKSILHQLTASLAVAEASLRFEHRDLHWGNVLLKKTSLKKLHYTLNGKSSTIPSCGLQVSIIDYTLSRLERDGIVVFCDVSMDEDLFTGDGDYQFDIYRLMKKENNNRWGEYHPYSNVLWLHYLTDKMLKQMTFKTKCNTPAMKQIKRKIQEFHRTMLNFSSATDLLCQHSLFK

[2] = biological target: T2, Gamma-aminobutyric acid receptor subunit alpha-1 (Homo sapiens) (UniProt P14867); assay: Selectivity interaction (GPCR panel (PDSP screen)) EUB0001079a GABRA1; conditions: at 10 µM
T2 sequence (whole entry): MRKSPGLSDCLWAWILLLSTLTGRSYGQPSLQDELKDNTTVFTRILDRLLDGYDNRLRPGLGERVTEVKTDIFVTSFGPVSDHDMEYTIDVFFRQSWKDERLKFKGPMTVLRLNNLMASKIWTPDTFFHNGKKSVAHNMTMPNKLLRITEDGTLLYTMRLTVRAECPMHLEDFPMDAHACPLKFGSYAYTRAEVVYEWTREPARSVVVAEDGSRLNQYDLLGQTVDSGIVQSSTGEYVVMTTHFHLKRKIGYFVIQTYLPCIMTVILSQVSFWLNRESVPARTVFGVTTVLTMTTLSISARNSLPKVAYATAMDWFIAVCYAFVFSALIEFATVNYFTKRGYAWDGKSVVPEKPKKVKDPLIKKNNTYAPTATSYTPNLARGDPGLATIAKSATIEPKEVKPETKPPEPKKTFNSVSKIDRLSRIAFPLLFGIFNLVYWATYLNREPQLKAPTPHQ

[3] = biological target: T3, Serine/threonine-protein kinase Nek3 (Homo sapiens) (UniProt P51956); assay: Selectivity interaction (KinomeScan (DiscoverX)) EUB0001049a NEK3; conditions: at 1 µM
T3 sequence (whole entry): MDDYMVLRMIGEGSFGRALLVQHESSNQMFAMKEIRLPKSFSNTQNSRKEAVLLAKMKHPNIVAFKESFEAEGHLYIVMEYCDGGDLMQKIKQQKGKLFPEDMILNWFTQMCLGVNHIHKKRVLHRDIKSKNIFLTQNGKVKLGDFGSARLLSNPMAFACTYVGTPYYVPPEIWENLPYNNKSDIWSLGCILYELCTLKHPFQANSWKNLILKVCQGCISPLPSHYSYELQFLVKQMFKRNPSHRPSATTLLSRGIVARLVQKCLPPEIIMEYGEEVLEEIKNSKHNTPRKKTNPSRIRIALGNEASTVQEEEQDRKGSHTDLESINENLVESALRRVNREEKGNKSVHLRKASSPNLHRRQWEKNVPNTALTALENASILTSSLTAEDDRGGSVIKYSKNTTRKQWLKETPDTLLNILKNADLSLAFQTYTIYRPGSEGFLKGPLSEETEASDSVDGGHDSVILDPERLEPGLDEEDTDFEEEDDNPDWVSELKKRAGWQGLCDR

[4] = biological target: T4, Protein kinase C zeta type (Homo sapiens) (UniProt Q05513); assay: Selectivity interaction (SelectScreen profiling (Invitrogen)) EUB0000607a PRKCZ; conditions: at 2 µM
T4 sequence (whole entry): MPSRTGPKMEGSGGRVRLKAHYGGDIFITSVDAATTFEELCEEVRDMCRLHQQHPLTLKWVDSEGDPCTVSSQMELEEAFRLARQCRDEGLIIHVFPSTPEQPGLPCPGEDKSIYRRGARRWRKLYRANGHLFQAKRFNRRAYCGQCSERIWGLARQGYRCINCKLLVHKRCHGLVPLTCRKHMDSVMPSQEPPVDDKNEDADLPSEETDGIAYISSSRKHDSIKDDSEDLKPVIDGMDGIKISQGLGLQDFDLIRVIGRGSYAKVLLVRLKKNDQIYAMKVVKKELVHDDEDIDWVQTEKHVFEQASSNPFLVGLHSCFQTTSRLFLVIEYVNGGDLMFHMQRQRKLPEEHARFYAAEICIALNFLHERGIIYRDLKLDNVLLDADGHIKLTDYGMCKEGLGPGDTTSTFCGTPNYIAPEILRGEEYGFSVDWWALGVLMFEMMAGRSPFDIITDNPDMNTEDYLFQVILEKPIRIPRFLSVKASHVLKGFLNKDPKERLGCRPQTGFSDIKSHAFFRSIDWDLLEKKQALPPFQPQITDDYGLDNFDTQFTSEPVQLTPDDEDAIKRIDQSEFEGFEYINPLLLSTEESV

[5] = biological target: T5, MAP kinase-activated protein kinase 5 (Homo sapiens) (UniProt Q8IW41); assay: Selectivity interaction (Kinase panel (Invitrogen)) EUB0000639a MAPKAPK5; conditions: at 200 nM
T5 sequence (whole entry): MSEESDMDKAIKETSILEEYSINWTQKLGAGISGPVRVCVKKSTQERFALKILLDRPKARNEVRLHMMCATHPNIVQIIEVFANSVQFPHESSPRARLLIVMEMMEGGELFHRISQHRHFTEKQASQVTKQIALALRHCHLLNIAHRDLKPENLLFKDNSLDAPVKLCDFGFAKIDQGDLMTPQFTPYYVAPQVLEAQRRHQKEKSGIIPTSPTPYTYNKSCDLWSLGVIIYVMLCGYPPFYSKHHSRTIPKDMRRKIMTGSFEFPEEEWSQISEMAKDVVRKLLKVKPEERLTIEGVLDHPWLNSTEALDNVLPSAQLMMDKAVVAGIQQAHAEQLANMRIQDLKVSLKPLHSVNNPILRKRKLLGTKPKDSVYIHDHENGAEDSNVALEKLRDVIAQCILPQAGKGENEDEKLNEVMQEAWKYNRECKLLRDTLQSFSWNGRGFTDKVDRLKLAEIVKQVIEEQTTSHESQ

Cc1cc(F)c(C(=O)Nc2cccc(-c3nncn3C(C)C)n2)cc1-n1cnc(C2CC2)c1
% of control [1]: 100%

Nc1cnc(N2CCc3cc(S(=O)(=O)Nc4c(F)cc(Cl)cc4F)cc(N4CCCC4=O)c32)nc1 [TP-020n]
% of inhibition [2]: 20.5%

COc1cc(Nc2nc(C)cc(-c3cnn4nc(OC)ccc34)n2)cc(C(F)(F)F)c1
% of control [3]: 92%

CNC(=O)Nc1ccc(-c2nc(N3CC4CCC(C3)O4)c3cnn(C4CCC5(CC4)OCCO5)c3n2)cc1
% of inhibition [4]: 8%

CC[C@@H]1[C@H](F)C(=O)N[C@@H]1COc1nccc2cc(C(N)=O)c(OC)cc12 [ZIMLOVISERTIB]
% of inhibition [5]: 8.71%
